Measurements reported in ChEMBL document CHEMBL5500406, “Discovery of Novel Proteolysis-Targeting Chimera Molecules as Degraders of Programmed Cell Death-Ligand 1 for Breast Cancer Therapy” (J Med Chem, 2024).
Active and inactive are the calls of the source. The rule behind the calls is not given here.

Legend:
[1] = tested on: 4T1; test: Antitumor activity against mouse 4T1 cells allografted in BALB/c mouse assessed as reduction in tumor weight at 10 mg/kg, ip qd for 15 days; format: functional, organism-based; conditions: time 15.0 day
[2] = tested on: 4T1; test: Antitumor activity against mouse 4T1 cells allografted in BALB/c mouse assessed as reduction in tumor volume at 10 mg/kg, ip qd for 15 days; format: functional, organism-based; conditions: time 15.0 day
[3] = target: T1, Protein cereblon/Programmed cell death 1 ligand 1 (Mus musculus) (UniProt Q9EP73+Q8C7D2); test: PROTAC activity at CRBN/PD-L1 in mouse 4T1 cells assessed as protein degradation at 1.25 to 20 uM incubated for 24 hrs by Western blot analysis; format: cell-based; conditions: dose 1.25-20 µM
[4] = target: T1, Protein cereblon/Programmed cell death 1 ligand 1 (Mus musculus); test: PROTAC activity at CRBN/PD-L1 in mouse 4T1 cells at 0.156 to 5 uM incubated for 24 hrs by Western blot analysis; format: cell-based; conditions: dose 0.156-5 µM
[5] = Cytotoxicity against BALB/c mouse PBMC cells at <=0.312 uM incubated for 48 hrs by MTT assay; format: toxicity, cell-based
[6] = tested on: 4T1; test: Antitumor activity against mouse 4T1 cells assessed as decrease in cell viability incubated for 24 hrs by LDH assay; format: functional, cell-based

T1 sequence (Q8C7D2 whole entry partner): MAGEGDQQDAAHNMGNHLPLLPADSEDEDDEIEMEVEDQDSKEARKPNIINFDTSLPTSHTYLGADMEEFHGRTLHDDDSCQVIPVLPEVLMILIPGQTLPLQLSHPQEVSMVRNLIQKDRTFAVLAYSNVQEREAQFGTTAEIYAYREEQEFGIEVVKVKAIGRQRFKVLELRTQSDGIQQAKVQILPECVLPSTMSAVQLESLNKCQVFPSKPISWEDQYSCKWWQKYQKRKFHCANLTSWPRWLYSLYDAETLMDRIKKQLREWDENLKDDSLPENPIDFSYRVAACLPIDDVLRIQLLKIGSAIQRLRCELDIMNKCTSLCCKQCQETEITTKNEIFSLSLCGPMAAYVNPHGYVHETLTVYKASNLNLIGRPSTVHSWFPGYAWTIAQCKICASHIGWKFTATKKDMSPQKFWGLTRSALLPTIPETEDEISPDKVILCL
T1 sequence (Q9EP73 19-290 limits assumed): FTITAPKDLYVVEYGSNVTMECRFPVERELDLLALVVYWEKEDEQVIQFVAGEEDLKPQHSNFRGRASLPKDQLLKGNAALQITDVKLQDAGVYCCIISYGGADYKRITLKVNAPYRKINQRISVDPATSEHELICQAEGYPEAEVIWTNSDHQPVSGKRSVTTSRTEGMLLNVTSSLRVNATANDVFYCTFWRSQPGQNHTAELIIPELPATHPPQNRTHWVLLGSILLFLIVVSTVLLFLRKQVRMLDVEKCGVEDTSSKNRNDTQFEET

With `CC(=O)O[C@H]1C(=O)[C@@]2(C)[C@H]([C@H](OC(=O)c3ccccc3)[C@]3(O)C[C@H](OC(=O)[C@H](O)[C@@H](NC(=O)c4ccccc4)c4ccccc4)C(C)=C1C3(C)C)[C@]1(OC(C)=O)CO[C@@H]1C[C@@H]2O` the Activity [1] was “Active” and the Activity [2] was “Active”.
For `COc1nc(OCc2cccc(-c3ccccc3)c2C)ccc1CNCCNC(=O)CCCCCCNC(=O)COc1ccc(C2CCC(=O)NC2=O)cc1` (stereo unspecified), the Activity [3] was “Active”.
In the case of `COc1nc(OCc2cccc(-c3ccccc3)c2C)ccc1CNCCNC(C)=O.Cl`, the Activity [4] is reported as “inactive”, the Activity [5] is reported as “Non-Toxic” and the Activity [6] is reported as “Active”.
